Test results taken from patent US20260355239A1, “COMBINATION OF A T CELL THERAPY AND CONTINUOUS OR INTERMITTENT DGK INHIBITOR DOSING” (Juno Therapeutics, Inc., priority 2022, published 2026).

Legend:
[1] = test system: CAR-expressing T cells; assay: Chronic stimulation assay, rescue treatment: tumor cell numbers, spheroid volume and cytokines during re-challenge of chronically stimulated CAR-expressing T cells (FIGS. 7A-8B); assay type: cell-based, human
Description: FIGS. 7A-7B and 8A-8B show cytolytic activity and cytokine production during re-challenge in the presence of Compound 17 of chronically stimulated CAR-expressing T cells (rescue treatment).
These observations were made using a chronic stimulation assay to render T cells (e.g. CAR T cells) hypofunctional (e.g. reduced cytolysis and IL-2 secretion). Using this model, engineered T cells (e.g. CAR T cells or eTCR T cells) were examined to assess impact of DGKi, such as Compound 17, on function of the engineered T cells when present during (concurrent) or following (rescue) exposure to conditions leading to a hypofunctional, exhaustive state.

[2] = test system: anti-CD19 CAR-T cells; assay: CAR-T cell phenotype after acute stimulation (flow cytometry); assay type: cell-based, human
Description: T cell compositions containing T cells expressing an exemplary anti-CD19 CAR were generated from leukapheresis samples from two healthy human adult donors by a process that included immunoaffinity-based selection of T cells by separately selecting CD4+ and CD8+ cells from the samples, resulting in two compositions enriched for CD4+ and CD8+ cells, respectively, per donor. Cells of the enriched CD4+ and CD8+ compositions were separately activated with anti-CD3/anti-CD28 beads and subjected to lentiviral transduction with a vector encoding an anti-CD19 CAR. The anti-CD19 CAR contained an anti-CD19 single-chain variable fragment (scFv) derived from a murine antibody (variable region derived from FMC63), an immunoglobulin-derived spacer, a transmembrane domain derived from CD28, a costimulatory region derived from 4-1BB, and a CD3-zeta intracellular signaling domain. […]
(§1) Prior to use, the cryopreserved CD4+ and CD8+ CAR-engineered cell compositions were thawed and combined at approximately a 1:1 CD4:CD8 ratio for each donor to prepare a combined CD4+ CAR+ and CD8+ CAR+ T cell composition. The effects of treatment with Compound 17 at various concentrations (0.1 nM, 1 nM, 10 nM, 100 nM, or 1000 nM) added at day 0 during stimulation of the combined CAR-T cell composition with a plate-bound CAR-specific anti-idiotypic antibody (see, e.g., WO2018/023100) or during co-culture with CD19-expressing cells was then assessed.
Approximately 20,000 cells of the combined CAR-T cell composition were stimulated with 3 μg/ml or 30 μg/ml plate-bound CAR-specific anti-idiotypic antibody in the presence of Compound 17. After a 48-hour stimulation, T cells were surface stained with antibodies for various activation and differentiation markers and analyzed by flow cytometry for the percent of cells positive for the assessed markers (% positive) and for mean fluorescence intensity (MFI) of expression for the assessed markers. […]

[3] = test system: anti-CD19 CAR-T cells; assay: CAR-T cell viability; assay type: cell-based, human; details: acute stimulation assays
Description: T cell compositions containing T cells expressing an exemplary anti-CD19 CAR were generated from leukapheresis samples from two healthy human adult donors by a process that included immunoaffinity-based selection of T cells by separately selecting CD4+ and CD8+ cells from the samples, resulting in two compositions enriched for CD4+ and CD8+ cells, respectively, per donor. Cells of the enriched CD4+ and CD8+ compositions were separately activated with anti-CD3/anti-CD28 beads and subjected to lentiviral transduction with a vector encoding an anti-CD19 CAR. […]
as §1

[4] = test system: anti-CD19 CAR-T cells with A549.CD19 and Granta-519 tumor spheroids; assay: Cytokine production of chronically stimulated, concurrently treated CAR-T cells, 3D spheroids; assay type: cell-based, human; details: concurrent treatment during chronic stimulation, five days
Method: To simulate conditions of chronic stimulation, approximately 20,000 anti-CD19 CAR-expressing T cells of a combined CAR-T cell composition produced as described in Example 2 from two healthy adult donors were incubated with 30 µg/mL of plate-bound CAR-specific anti-idiotypic antibody (see, e.g., WO2018/023100) at 37 °C for a period of seven days. During this seven-day period, engineered CAR T cells were concurrently treated with Compound 17(0.1-1000 nM) or a vehicle control added at day 0.
To further assess activity of chronically stimulated cell, the chronically stimulated CAR-T cells that had been concurrently treated with DGKi were incubated with A549 CD19+ tumor spheroids or Granta-519 tumor spheroids to rechallenge the CAR-T cells at an effector to target ratio of 1:2 for up to 14 days. The tumor spheroids were engineered to express a red fluorescent dye to permit monitoring of tumor cell lysis by microscopy during the assay.
Supernatant was collected at day 5 from the above tumor spheroid cultures with chronically stimulated CAR-expressing T cells. Cytokine production was measured from the supernatant by meso scale discovery (MSD) analysis of the collected cell supernatants. […] Duplicate values for cell compositions manufactured from the two different healthy donors are shown.

[5] = test system: eTCR T cells; assay: Rescue treatment: proliferation of chronically stimulated eTCR T cells on re-stimulation; assay type: cell-based, human; details: 100 nM, 7 day re-stimulation with 20 μg/mL anti-Vbeta
Description: Primary human CD4+ and CD8+ T cells were isolated from healthy donors by immunoaffinity-based methods. The isolated CD4+ and CD8+ T cells were combined and stimulated with an anti-CD3/anti-CD28 reagent, and then were transduced with a lentiviral vector encoding an anti-human papillomavirus 16 (anti-HPV16) eTCR. The nucleotide sequences encoding the beta chain and the alpha chain of the eTCR were separated by a sequence encoding a 2A ribosome skip element. Following transduction, the cells were cultured in media containing human serum and cytokines for 9-10 days prior to further assessment.
In another experiment to assess activity of the DGKi to rescue or reverse exhaustion, eTCR T cells were chronically stimulated for 6 days as described above in the absence of Compound 17. Then, chronically stimulated eTCR T cells or freshly thawed eTCR T cells that had not been chronically stimulated were re-stimulated with 20 μg/mL plate-bound antibody against the Vbeta chain of the eTCR in the presence of 100 nM Compound 17 for 7 days. As a control, chronically stimulated eTCR T cells were re-stimulated in the absence of Compound 17 for 7 days. At the end of the 7 day re-stimulation, cell counts were determined.

[6] = test system: Raji-rFluc cells
Method: For assessing in vivo anti-tumor effects, immunodeficient NSG mice were injected intravenously with 0.5×10^6 Raji-rFluc cells. […] This dose of CAR-expressing T cells was not expected to achieve complete tumor rejection.
For assessing tumor burden by bioluminescence imaging, mice received intraperitoneal injections of luciferin substrate resuspended in phosphate-buffered saline. Tumor burden and survival of treated mice were assessed until Day 50. In addition, flow cytometry for assessing circulating CAR T cell number and CD4 and CD8 expression was performed on Days 5, 12, 19, and 26. CAR expression was assessed using an anti-idiotypic (anti-ID) antibody specific for the CAR.

[7] = 48-hour stimulation, 3 or 30 μg/mL CAR-specific anti-idiotypic antibody
[8] = Compound 17: 0.3 mg/kg oral once daily Days 1-30 with CAR T cells, or KO CAR T cells
[9] = Compound 17: 0.3 mg/kg oral once daily Days 1-30 with CAR T cells, or KO CAR T cells, vs CAR T cells without DGK KO alone

CC[C@H]1CN([C@@H](CC)c2ccc(C(F)(F)F)cc2)[C@H](CC)CN1c1nc(=O)n(C)c2ccc(C#N)nc12 [Compound 17, 4-((2S,5R)-2,5-diethyl-4-((S)-1-(4-(trifluoromethyl)phenyl)propyl)piperazin-1-yl)-1-methyl-2-oxo-1,2-dihydropyrido[3,2-d]pyrimidine-6-carbonitrile]
recovery of activity of exhausted T cells ([1]; chronically stimulated T cells exhibiting features of exhaustion): able to recover activity or have their activity restored or partially restored | rescue of T cell function of exhausted T cells ([1]; rescue treatment, later exposure): could rescue or restore T cell function, including cytokine production and cytolytic activity, of exhausted T cells | expression of CD27 and CD62L [2, 7]: decreased expression of CD27 and CD62L | expression of CD69 and PD-1 [2, 7]: increased expression of CD69 and PD-1 | effect on cell phenotype, dose dependence ([2]; in particular 30 μg/mL CAR-specific anti-idiotypic antibody): dose-dependent | T cell viability [3]: no impact of Compound 17 on T cell viability was observed | production of IFNγ, IL-2 and TNFα [4]: dose-dependent increase in production of all three cytokines | proliferation of chronically stimulated eTCR T cells (cell counts) [5]: increased proliferation of the eTCR T cells | CAR T cell expansion and/or persistence [6, 8]: improved CAR T cell expansion and/or persistence | tumor burden [6, 8]: tumor burden was reduced | anti-tumor efficacy (tumor control index) [6, 9]: improved anti-tumor efficacy | survival [6, 9]: improved survival | tumor burden, survival, and CAR T cell expansion and/or persistence vs DGKα/ζ dual KO CAR T cells ([6]; continuous DGKi administration with CAR T cells): comparable to those achieved with administration of DGKα/ζ dual KO CAR T cells
